{
  "source": "patent US9220725B2",
  "about": "“Cationic latex as a carrier for bioactive ingredients and methods for making and using the same” (priority 2006, dated 2015)",
  "key": {"[1]": {"assay": "Solubility of additives used in polymerization", "type": "physicochemical"}, "fungal species [2]": {"tested_on": "fungal species", "assay": "30-III fungal test on 1\"X1\" chip of dried latex, growth observed after 7 days", "type": "cell-based", "conditions": "7 day incubation", "experimental": "The results observed in the G-21 study were also duplicated in a shorter (7 day incubation) fungal study (referred to herein as 30-III).\nThe 30-III fungal test was based on making a 1″X1″ chip of the dried latex and inoculating the fungal species directly on to the sample and then observing its growth after 7 days. This is not as rigorous a test as the G-21 test, but gave a quick indication of the efficacy of the additives."}, "fungal species [3]": {"tested_on": "fungal species", "assay": "ASTM D-3273 on coated paper, increased coating thickness, spores in humidity chamber, 28 days", "type": "cell-based", "experimental": "A second round of testing was performed using an increased coating thickness to ensure full coverage of the paper surface. The second round of testing of the coated paper samples were tested according to ASTM D-3273. In this study, the duration remained the same (28 days), but the fungal species were not directly inoculated on the surface. Rather, they were maintained in the humidity chamber as spores that would then land on the surface of the coated paper as in a real world example. The results of this study are outlined in FIG. 3."}, "[4]": {"assay": "Stability of additive during polymerization", "type": "physicochemical", "conditions": "incorporated in relatively high amounts", "from_the_text": "Ideally, the materials are substantially unreactive during the polymerization conditions, so they are not degraded during polymerization. In some embodiments, low levels of additive might be observed, whether due to degradation, or difficulty in extraction from the polymer latex. In any case, retention of the additive in the latex leads to retention of antifungal properties in the finished paper.\nThe polymerization temperature was investigated as a potential contributor to degradation, and it was kept as low as was feasible (typically <70° C.). The samples were stripped at the end of polymerization to the desired solids content."}},
  "note": "Read-outs that look alike come from different tables or passages of the source.",
  "data": [
    {"compound": "CC(C)(C)C(O)(CCc1ccc(Cl)cc1)Cn1cncn1", "note": "(centres unmarked) [Microban TZ, Tebuconazole]", "values": [
      {"measurement": "Solubility", "setting": "[1]", "result": "Fairly soluble"}
    ]},
    {"compound": "Zinc pyrithione [Microban Z01]", "values": [
      {"measurement": "antifungal performance", "setting": "fungal species [2]", "result": "performed well"},
      {"measurement": "Solubility", "setting": "[1]; in monomer where given", "result": "Insoluble in"},
      {"measurement": "antifungal performance", "setting": "fungal species [3]", "result": "did not perform well"}
    ]},
    {"compound": "CCCC1COC(Cn2cncn2)(c2ccc(Cl)cc2Cl)O1", "note": "(centres unmarked) [Microban PZ, Propiconazole]", "values": [
      {"measurement": "Solubility", "setting": "[1]", "result": "Fairly soluble"}
    ]},
    {"compound": "Oc1cc(Cl)ccc1Oc1ccc(Cl)cc1Cl", "note": "[Triclosan, Chlorodiphenyl ether, reference compound]", "values": [
      {"measurement": "Solubility", "setting": "[1]; in monomer where given", "result": "Solid. Fairly"}
    ]},
    {"compound": "[Na+].[O-]c1ccccc1-c1ccccc1", "note": "[Microban P2, Sodium orthophenyl phenate]", "values": [
      {"measurement": "Solubility", "setting": "[1]; in water", "result": "soluble"}
    ]},
    {"compound": "Cc1ccc(S(=O)(=O)C(I)I)cc1", "note": "[Amical AF, Diiodomethyltoluyl sulfone]", "values": [
      {"measurement": "antifungal performance", "setting": "fungal species [2]", "result": "some fungal inhibition"},
      {"measurement": "Solubility", "setting": "[1]; in monomer where given", "result": "Limited"},
      {"measurement": "antifungal performance", "setting": "fungal species [3]", "result": "effective"},
      {"measurement": "degradation during polymerization", "setting": "[4]", "result": "degraded"}
    ]}
  ]
}
